In PMC7527510, “Identification of the dog orthologue of human MAS-related G protein coupled receptor X2 (MRGPRX2) essential for drug-induced pseudo-allergic reactions” (Scientific Reports, 2020):
Where “and” joins values, the source holds several entries; their conditions need not be identical. Equal entries are not always repeated. Entries after “also recorded” stand apart in the source; their conditions may differ. Where two headings read alike, the source gives them in different places.

Key:
[1] = system: non-transfected HEK293 cells; experiment: Intracellular Ca2+ levels in non-transfected HEK293 cells (negative control cells); type: cell-based, human; conditions: 1,000 μg/mL; data excluded from the analysis
Experimental: HEK293 cells obtained from the JCRB Cell Bank (Osaka, Japan) were transfected transiently with dog MRGPRD, MRGPRF, MRGPRG, or MRGPRX2 or human MRGPRX2. Lipofectamine 2000 Reagent (Thermo Fisher Scientific Inc.) and pcDNA3.1(+) vector containing each gene were diluted and mixed using Opti-MEM I Reduced Serum Medium (Thermo Fisher Scientific Inc.) to prepare lipid-DNA complexes (final concentrations: lipofectamine 2.5 μL/mL and DNA 2,500 ng/mL). HEK293 cells were detached using TrypLE™ Express (Thermo Fisher Scientific Inc.) and prepared to 7 × 10^5 cells/mL with the lipid-DNA complex. […]
Test articles were dissolved in HBSS (pH 7.4, Thermo Fisher Scientific Inc., Waltham, MA, USA) supplemented with 20 mM HEPES (Sigma-Aldrich Co. LLC.) and 0.05 vol% bovine serum albumin (BSA, Sigma-Aldrich Co. LLC.). […] Intracellular Ca^2+ levels were analysed using Calcium Kit II-iCellux (Dojindo Molecular Technologies, Inc., Kumamoto, Japan), according to the manufacturer's instructions. […] Changes in fluorescence intensities before and after addition of the test articles were measured over time using FLIPR Tetra (Molecular Devices, LLC., Sunnyvale, CA, USA) with excitation at 470–495 nm and emission at 515–575 nm. […] Samples were measured in duplicate or quadruplicate. […]

[2] = target: dog MRGPRX2 (Canis lupus familiaris, UniProt A0A4Y5P885); experiment: Intracellular Ca2+ mobilisation assay in HEK293 cells transiently transfected with dog MRGPRX2; type: cell-based; conditions: for Difference in EC50 values between dog MRGPRX2 and human MRGPRX2: EC50 lower in dog MRGPRX2-expressing cells than in human MRGPRX2-expressing cells; for EC50: mean ± SD of three independent experiments; for Activation of dog MRGPRX2 (increase in intracellular Ca2+): HEK293 cells transfected with dog MRGPRX2, fluoroquinolones up to 1000 μg/mL
dog MRGPRX2, sequence (A0A4Y5P885 entry or part of it): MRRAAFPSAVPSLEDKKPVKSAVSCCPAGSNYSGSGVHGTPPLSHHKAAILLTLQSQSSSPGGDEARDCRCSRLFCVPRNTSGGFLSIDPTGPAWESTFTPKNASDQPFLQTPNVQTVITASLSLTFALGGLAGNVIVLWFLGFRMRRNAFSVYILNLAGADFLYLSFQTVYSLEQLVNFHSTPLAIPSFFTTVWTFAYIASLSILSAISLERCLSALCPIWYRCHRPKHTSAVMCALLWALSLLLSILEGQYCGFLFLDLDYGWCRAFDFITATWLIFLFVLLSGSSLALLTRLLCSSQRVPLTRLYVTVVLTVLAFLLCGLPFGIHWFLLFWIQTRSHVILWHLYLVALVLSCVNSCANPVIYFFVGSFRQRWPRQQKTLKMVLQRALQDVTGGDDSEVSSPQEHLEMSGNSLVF
Experimental: (§1) HEK293 cells obtained from the JCRB Cell Bank (Osaka, Japan) were transfected transiently with dog MRGPRD, MRGPRF, MRGPRG, or MRGPRX2 or human MRGPRX2. Lipofectamine 2000 Reagent (Thermo Fisher Scientific Inc.) and pcDNA3.1(+) vector containing each gene were diluted and mixed using Opti-MEM I Reduced Serum Medium (Thermo Fisher Scientific Inc.) to prepare lipid-DNA complexes (final concentrations: lipofectamine 2.5 μL/mL and DNA 2,500 ng/mL). HEK293 cells were detached using TrypLE™ Express (Thermo Fisher Scientific Inc.) and prepared to 7 × 10^5 cells/mL with the lipid-DNA complex. Thereafter, 25 μL cells (1.75 × 10^4 cells/well) were seeded per well in 384-well flat-bottomed plates (Corning Incorporated, Corning, NY, USA) and incubated overnight at 37 °C under 5% CO2 conditions. Cells treated with plasmid-free lipid solution were used as negative control (non-transfected cells).
(§2) Test articles were dissolved in HBSS (pH 7.4, Thermo Fisher Scientific Inc., Waltham, MA, USA) supplemented with 20 mM HEPES (Sigma-Aldrich Co. LLC.) and 0.05 vol% bovine serum albumin (BSA, Sigma-Aldrich Co. LLC.). The highest concentration of the fluoroquinolones was set at 1000 μg/mL based on previous reports at which the test substances induced marked intracellular Ca^2+ mobilisation in human MRGPRX2-expressing HEK293 cells[11] or caused histamine release in rat or human mast cells[16],[25],[36]. Intracellular Ca^2+ levels were analysed using Calcium Kit II-iCellux (Dojindo Molecular Technologies, Inc., Kumamoto, Japan), according to the manufacturer's instructions. HEK293 cells (1.75 × 10^4 cells/well) were loaded with 1.25 mM probenecid and calcium probe for 45 min at 25 °C. Changes in fluorescence intensities before and after addition of the test articles were measured over time using FLIPR Tetra (Molecular Devices, LLC., Sunnyvale, CA, USA) with excitation at 470–495 nm and emission at 515–575 nm. The test articles were added at 10 s after beginning the measurements. Samples were measured in duplicate or quadruplicate. The data were analysed using ScreenWorks (Molecular Devices, LLC. Version 3.2.0.14) to determine the difference between maximal and minimal fluorescence intensity (max–min).
(§3) Data represent the mean ± SD of three animals for distribution study or three independent assays for Ca^2+ mobilisation. EC50 of each test article used in the Ca^2+ mobilisation assay was calculated using the sigmoid Emax model. These analyses were performed by using the SAS System Release 8.2 software (SAS Institute Inc., Cary, NC, USA).

[3] = target: T1, human MRGPRX2 (Homo sapiens, UniProt Q96LB1); experiment: Intracellular Ca2+ mobilisation assay in HEK293 cells transiently transfected with human MRGPRX2; type: cell-based; conditions: for Activation of human MRGPRX2 (increase in intracellular Ca2+): HEK293 cells transfected with human MRGPRX2, fluoroquinolones up to 1000 μg/mL; for EC50: human MRGPRX2-expressing HEK293 cells, mean ± SD of three independent experiments, read-out: EC50 on changes in intracellular Ca2+ levels, Human MRGPRX2 (converted)
T1 construct: expressed in transfected cells; host or cells: HEK293 (JCRB Cell Bank), transient, pcDNA3.1(+) vector
T1 sequence (Q96LB1 1-330): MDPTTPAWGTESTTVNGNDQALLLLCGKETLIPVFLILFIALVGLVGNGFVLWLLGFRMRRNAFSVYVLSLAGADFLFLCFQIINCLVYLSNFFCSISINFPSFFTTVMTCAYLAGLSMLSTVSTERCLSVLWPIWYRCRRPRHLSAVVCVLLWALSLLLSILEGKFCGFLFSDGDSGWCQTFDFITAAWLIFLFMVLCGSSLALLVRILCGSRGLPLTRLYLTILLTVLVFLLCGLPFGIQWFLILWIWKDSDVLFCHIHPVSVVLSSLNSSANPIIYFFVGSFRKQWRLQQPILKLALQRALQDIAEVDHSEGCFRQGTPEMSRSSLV
Experimental: as §1
as §2, with “The highest concentration of the fluoroquinolones was set at 1000 μg/mL based on previous reports at which the test substances induced marked intracellular Ca^2+ mobilisation in human MRGPRX2-expressing HEK293 cells[11] or caused histamine release in rat or human mast cells[16],[25],[36].” left out
as §3

[4] = system: dispersed canine skin mast cells; design: method as in PMID 10864147; conditions: cited from earlier work
[5] = design: method as in PMID 9635500; conditions: cited from earlier work
[6] = system: mouse Mrgprb2; design: method as in PMID 25517090; conditions: cited from earlier work
[7] = EC50 on changes in intracellular Ca2+ levels, Dog MRGPRX2, dog MRGPRX2-expressing HEK293 cells

O=C(O)c1cn(C2CC2)c2cc(N3CCNCC3)c(F)cc2c1=O [CPFX, ciprofloxacin]
Nonspecific increase in intracellular Ca2+ levels in non-transfected cells [1]: induced nonspecific increase
Difference in EC50 values between dog MRGPRX2 and human MRGPRX2 [2]: ca. sevenfold
EC50 [2, 7]: ~45.3 µM and 43.8 µM
Activation of dog MRGPRX2 (increase in intracellular Ca2+) [2]: responded
Activation of human MRGPRX2 (increase in intracellular Ca2+) [3]: concentration-dependent

COc1c(N2CCNC(C)C2)c(F)cc2c(=O)c(C(=O)O)cn(C3CC3)c12 (centres unmarked) [GFLX, gatifloxacin]
Activation of dog MRGPRX2 (increase in intracellular Ca2+) [2]: responded
EC50 ([2]; dog MRGPRX2-expressing HEK293 cells, read-out: EC50 on changes in intracellular Ca2+ levels, Dog MRGPRX2 (converted)): 210 µM
Activation of human MRGPRX2 (increase in intracellular Ca2+) [3]: concentration-dependent
EC50 [3]: 529 µM

C[C@H]1COc2c(N3CCN(C)CC3)c(F)cc3c(=O)c(C(=O)O)cn1c23 [LVFX, levofloxacin]
Difference in EC50 values between dog MRGPRX2 and human MRGPRX2 [2]: ca. sevenfold
EC50 [2, 7]: ~166 µM and 163 µM
Activation of dog MRGPRX2 (increase in intracellular Ca2+) [2]: responded
Activation of human MRGPRX2 (increase in intracellular Ca2+) [3]: concentration-dependent
EC50 [3]: 1060 µM
Concentration inducing histamine release from dispersed canine skin mast cells [4]: ≥ 30 µg/mL

C[C@H]1COc2c(C3(N)CC3)c(F)cc3c(=O)c(C(=O)O)cn1c23 [PZFX, pazufloxacin]
Histamine release in dogs [5]: does not induce histamine release; also recorded: does not cause histamine release
Activation of dog MRGPRX2 (increase in intracellular Ca2+) [2]: did not activate
Activation of human MRGPRX2 (increase in intracellular Ca2+) [3]: did not activate

substance P
EC50 in mouse Mrgprb2-expressing cells compared to human MRGPRX2-expressing cells ([6]; higher in mouse): 360 fold
EC50 ([6]; read-out: EC50 in mouse Mrgprb2-expressing cells): 54 µM
